Results taken from patent US10722500B2, “Gossypol 7-N-isatin Schiff base compounds with antitumor activities and a method of preparing the same” (SHAANXI PANLONG PHARMACEUTICAL GROUP LIMITED BY SHARE LTD., priority 2018, dated 2020).
Like-named read-outs stand apart in the source and are kept apart here.

Experiments:
[1] = test system: human lung cancer cells (A-549); test: MTT tumor cell proliferation inhibition test, A-549; format: cell-based; conditions: A549 cells, 48 hours treatment, read-out: Half Inhibitory Concentration IC50 A549
Description: (§1) The compounds of the present invention were subjected to tumor cell proliferation inhibition test, and conventional MTT method was used.
(§2) Cell lines: human hepatoma cells (HepG2), human lung cancer cells (A-549), human gastric cancer cells (SGC-7901). The culture medium was DMEM+15% NBS+double antibody.
(§3) Sample solution preparation: after dissolving with DMSO (Merck), PBS (−) was added to obtain 100 μmol/L solution or homogeneous suspension. The solution was diluted with PBS (−) in DMSO to a final concentration of 0.1, 1, 10, 20, 40, 60, 80, 100 μmol/L.
(§4) Gossypol was used as control solution, prepared under the same condition.
(§5) Cell culture: adherent growth Tumor cells were cultured in 1640 medium containing 10% inactivated neonatal bovine serum and penicillin, streptomycin (1 million U/L), placed in carbon dioxide incubator at 37° C., 5% CO2, and saturated humidity. Cells were treated serially passaged 2-3 times. The first culture was washed with PBS 2 times, and digested with trypsin. Fresh culture medium was added evenly, cells were adjusted to a appropriate concentration and transferred into a new culture flask. Cell in an exponential phase were chosen for the tests.
(§6) MTT Assay for Cell Viability and IC50 Determination
(§7) Experimental Principle: Living cells mitochondria in the dehydrogenase can reduce yellow MTT to water-insoluble blue-violet product MT (MTT formazan), deposited in the cells. The amount of production is proportional to the number of living cells. […] DMSO can dissolve blue violet crystals, and the color depth is proportional to the amount contained, so the absorbance measured by the microplate reader can reflect the cell viability.
(§8) Methods: The exponential phase cells were digested and counted and seeded in 96-well plates at a density of 2×10^4/mL at 100 μl per well. After 24 hours of incubation, the cells to be tested were treated with 0.1, 1, 10, 20, 40, 60, 80, 100 μmol/L of the compounds. Each experimental group had 5 wells in each concentration, and the culture medium containing 0.4% DMSO was used as control. After 48 hours, the supernatant was discarded, and 100 μl of MTT ((2-(4,5-dimethyl-2-thiazolyl)-3,5-diphenyl-2H-[…]) (1 mg/mL) was added to each well. After another 4 hours, the supernatant was discarded, and 100 μl of DMSO was added to each well. After mixing, the absorbance was measured at 570 nm using a microplate reader. An IC50 calculation software was used to determine the half inhibitory concentration (IC50).

[2] = test system: human gastric cancer cells (SGC-7901); test: MTT tumor cell proliferation inhibition test, SGC-7901; format: cell-based; conditions: SGC-7901 cells, 48 hours treatment, read-out: Half Inhibitory Concentration IC50 SGC-7901
Description: as §1, §2, §3, §4, §5, §6, §7, §8

[3] = test system: human hepatoma cells (HepG2); test: MTT tumor cell proliferation inhibition test, HepG2; format: cell-based; conditions: read-out: Half Inhibitory Concentration IC50 HepG2
Description: as §1, §2, §3, §4, §5, §6, §7, §8

[4] = test system: HepG2, A-549, SGC-7901 tumor cells; test: MTT tumor cell proliferation inhibition test, summary over the three cell lines; format: cell-based, human; conditions: the three cell lines tested
Description: as §1, §2, §3, §4
as §5, with “Cell in an exponential phase were chosen for the tests.” left out
as §7, with “the” for “the cells. The amount of production is proportional to the number of living”
as §8, with “After 24 hours of incubation, the cells to be tested were treated with 0.1, 1, 10, 20, 40, 60, 80, 100 μmol/L of the compounds. Each experimental group had 5 wells in each concentration, and the culture medium containing 0.4% DMSO was used as control.” left out

[5] = HepG2 cells, MTT, 48 hours treatment

With `CON1C(=O)/C(=N\N=C\c2c(O)c(O)c(C(C)C)c3cc(C)c(-c4c(C)cc5c(C(C)C)c(O)c(O)c(/C=N/N=C6/C(=O)N(OC)c7ncccc76)c5c4O)c(O)c23)c2cccnc21` [Compound 6, (3Z,3′E)-3,3′-(((1E,1′E)-(1,1′,6,6′,7,7′-hexahydroxy-5,5′-diisopropyl-3,3′-dimethyl-[2,2′-binaphthalene]-8,8′-diyl)bis(methanylylidene))bis(hydrazine-2,1-diylidene))bis(1-methoxy-1,3-dihydro-2H-pyrrolo[2,3-b]pyridin-2-one)] the IC50 [1] was 62.9 ± 2.15 µM, the IC50 [2] was > 100 µM and the IC50 [3, 5] was > 100 µM. It also gave a melting point of 201.9 °C.

With `Cc1cc2c(C(C)C)c(O)c(O)c(/C=N/N=C3\C(=O)N(Cc4ccccc4)c4ncccc43)c2c(O)c1-c1c(C)cc2c(C(C)C)c(O)c(O)c(/C=N/N=C3/C(=O)N(Cc4ccccc4)c4ncccc43)c2c1O` [Compound 5, (3Z,3′E)-3,3′-(((1E,1′E)-(1,1′,6,6′,7,7′-hexahydroxy-5,5′-diisopropyl-3,3′-dimethyl-[2,2′-binaphthalene]-8,8′-diyl)bis(methanylylidene))bis(hydrazine-2,1-diylidene))bis(1-benzyl-1,3-dihydro-2H-pyrrolo[2,3-b]pyridin-2-one)] the IC50 [1] was 10.1 ± 1.33 µM, the “antitumor activities (in words)” value [4] was “excellent antitumor activities” and the IC50 [2] was 12.3 ± 1.43 µM. For the same molecule, the IC50 [3, 5] was 7.94 ± 0.85 µM.

In the case of `Cc1cc2c(C(C)C)c(O)c(O)c(/C=N/N=C3\C(=O)Nc4ncccc43)c2c(O)c1-c1c(C)cc2c(C(C)C)c(O)c(O)c(/C=N/N=C3/C(=O)Nc4ncccc43)c2c1O` [Compound 1, (3Z,3′E)-3,3′-(((1E,1′E)-(1,1′,6,6′,7,7′-hexahydroxy-5,5′-diisopropyl-3,3′-dimethyl-[2,2′-binaphthalene]-8,8′-diyl)bis(methanylylidene))bis(hydrazine-2,1-diylidene))bis(1,3-dihydro-2H-pyrrolo[2,3-b]pyridin-2-one)], the IC50 [1] is reported as > 100 µM, the IC50 [2] is reported as > 100 µM and the IC50 [3, 5] is reported as > 100 µM. For the same molecule, the melting point was 186.5 °C.

Work on `Cc1cc2c(C(C)C)c(O)c(O)c(C=O)c2c(O)c1-c1c(C)cc2c(C(C)C)c(O)c(O)c(C=O)c2c1O` [Gossypol] yielded an IC50 ([3]; HepG2, 48 h) of 955 ± 0.41 µM.

With `Cc1cc2c(C(C)C)c(O)c(O)c(/C=N/N=C3\C(=O)N(C(C)C)c4ncccc43)c2c(O)c1-c1c(C)cc2c(C(C)C)c(O)c(O)c(/C=N/N=C3/C(=O)N(C(C)C)c4ncccc43)c2c1O` [Compound 4, (3Z,3′E)-3,3′-(((1E,1′E)-(1,1′,6,6′,7,7′-hexahydroxy-5,5′-diisopropyl-3,3′-dimethyl-[2,2′-binaphthalene]-8,8′-diyl)bis(methanylylidene))bis(hydrazine-2,1-diylidene))bis(1-isopropyl-1,3-dihydro-2H-pyrrolo[2,3-b]pyridin-2-one)] the IC50 [1] was 74.1 ± 3.46 µM, the IC50 [2] was > 100 µM and the IC50 [3, 5] was > 100 µM. It also gave a melting point of 209.1 °C.

In the case of `CCN1C(=O)/C(=N\N=C\c2c(O)c(O)c(C(C)C)c3cc(C)c(-c4c(C)cc5c(C(C)C)c(O)c(O)c(/C=N/N=C6/C(=O)N(CC)c7ncccc76)c5c4O)c(O)c23)c2cccnc21` [Compound 3, (3Z,3′E)-3,3′-(((1E,1′E)-(1,1′,6,6′,7,7′-hexahydroxy-5,5′-diisopropyl-3,3′-dimethyl-[2,2′-binaphthalene]-8,8′-diyl)bis(methanylylidene))bis(hydrazine-2,1-diylidene))bis(1-ethyl-1,3-dihydro-2H-pyrrolo[2,3-b]pyridin-2-one)], the IC50 [1] is reported as 17.4 ± 0.79 µM, the “antitumor activities (in words)” value [4] is reported as “good activities” and the IC50 [2] is reported as 13.4 ± 1.51 µM. It also gave an IC50 [3, 5] of 9.92 ± 0.79 µM.

With `Cc1cc2c(C(C)C)c(O)c(O)c(/C=N/N=C3\C(=O)N(C)c4ncccc43)c2c(O)c1-c1c(C)cc2c(C(C)C)c(O)c(O)c(/C=N/N=C3/C(=O)N(C)c4ncccc43)c2c1O` [Compound 2, (3Z,3′E)-3,3′-(((1E,1′E)-(1,1′,6,6′,7,7′-hexahydroxy-5,5′-diisopropyl-3,3′-dimethyl-[2,2′-binaphthalene]-8,8′-diyl)bis(methanylylidene))bis(hydrazine-2,1-diylidene))bis(1-methyl-1,3-dihydro-2H-pyrrolo[2,3-b]pyridin-2-one)] the IC50 [1] was 11.2 ± 2.26 µM, the “antitumor activities (in words)” value [4] was “good activities” and the IC50 [2] was > 100 µM. For the same molecule, the IC50 [3, 5] was 12.5 ± 2.39 µM.
